Patent US20110135571A1, “HYBRID NANOPARTICLES AS ANTI-CANCER THERAPEUTIC AGENTS AND DUAL THERAPEUTIC/IMAGING CONTRAST AGENTS” (priority 2008, published 2011)

How the values were obtained:
[1] = tested on: Angiogenic human colon cancer (HT-29) cells; assay: HT-29 viability assays; type: cell-based; settings: HT-29, 2000 cells/well, 72 hours, untargeted particles
Excerpt: (§1) Cell Lines All cell lines were purchased from the Tissue Culture Facility of the UNC Lineberger Comprehensive Cancer Center (Chapel Hill, N.C., United States of America) and cultured as per American Type Culture Collection (ATCC; Manassas, Va., United States of America) recommendations. HT29 cells (ATCC# HTB 38) were propagated in McCoy's 5A (Cellgro, Manassas, Va., United States of America) supplemented with 10% fetal bovine serum and 1% penicillin/streptomycin. MCF-7 cells (ATCC# HTB 22) were propagated in MEM Alpha (Cellgro, Manassas, Va., United States of America) supplemented with 10% fetal bovine serum, 1% penicillin/streptomycin, 1% sodium pyruvate, and 10 μg/mL insulin.
(§2) HT-29 viability assays: Angiogenic human colon cancer (HT-29) cells were grown in 96 well plates at 2000 cells/well to 100 μL total volume. After a 24 hour incubation, the media was replaced with 100 μL of drug solution containing 0.5% DMSO and 0.5% phosphate buffered saline (PBS) in media, with drug concentrations varying as indicated. All concentrations were performed in quadruplicate. Cell viability was measured after 72 hours using CellTiter 96 Aqueous One Solution Assay (Promega Corporation, Madison, Wis., United States of America), according to the manufacturer's protocol.

[2] = tested on: MCF-7 cells (breast cancer); assay: MCF-7 Viability Assays; type: cell-based, human
Excerpt: as §1, §2
MCF-7 Viability Assays. As a further control, cell viability assays were also performed using MCF-7 cells (breast cancer). MCF-7 cells were assayed under the same conditions as HT-29, and also at 4000 cells/well and 72 hours. Unlike with HT-29, Pt(IV) drugs are active. […] NCP-1′-b was also tested but at 2000 cells/well.

[3] = MCF-7, 4000 cells/well, 72 hours

Compound	cell death on treatment of HT-29 cells [1]	IC50 [2, 3]	IC50 ([2]; MCF-7, 2000 cells/well)
[NH2][Pt]([NH2])([Cl])([Cl])([O]C(=O)CCC(=O)O)[O]C(=O)CCC(=O)O [DSCP, c,c,t-Pt(NH3)2Cl2(O2CCH2CH2CO2H)2]	did not lead to any appreciable cell death	11.1 µM	
cis-Pt(NH3)2Cl2 [cisplatin]		10.7 µM	2.1 µM
